Earlier results on 11 compounds are cited in patent publication US20150246117A1, “TREATMENT OF TYPE 2 DIABETES AND RELATED CONDITIONS” (priority 2012, published 2015).

Read-outs that look alike come from different tables or passages of the source. Some results are limits rather than exact numbers.

The conditions of data set [1]: for hypoglycemia in combination therapy: combined with sulfonylurea, insulin secretagogue or insulin.
The test system of data set [2] is CYP3A4/5. The note with it: coadministration with strong CYP3A4/5 inhibitors (e.g., ketoconazole).
The conditions of data set [3]: co-administration of 100 mg sitagliptin for 10 days.
For data set [4] the following is noted: in vivo.

Turning to `Cn1c(=O)cc(N2CCC[C@@H](N)C2)n(Cc2ccccc2C#N)c1=O` [Alogliptin], in data set [1] (human, in vivo), the “adverse events / tolerability in clinical studies” value (“adverse events / tolerability” below) was “The agent is relatively well tolerated” and the “rate of skin events, primarily pruritus” value is “finding being a marginally higher rate”. For the same compound, for the setting “in vivo”, the Half-life is 12.4 to 21.4 h.

On to `N[C@@H](CC(=O)N1CCc2c(nc(C(F)(F)F)nc2C(F)(F)F)C1)CN1CC(F)(F)CCC1=O` [Gemigliptin], for which the “adverse events / tolerability” value in data set [1] (human, in vivo) is “No serious adverse events recorded”. For the same compound, the Half-life (in vivo) was 17 to 21 h.

Regarding `COc1ccc2cc3[n+](cc2c1OC)CCc1cc2c(cc1-3)OCO2` [berberine], in data set [1] (human, in vivo), the “adverse events / tolerability” value is “Transient gastrointestinal adverse”. For the same compound, the Half-life (in vivo) was 3 to 4 h.

In the case of `O=C(CN[C@@H]1CCNC1)N1CCC[C@H]1B(O)O` [dutogliptin], the Half-life (in vivo) was 10 to 13 h.

Regarding `CC#CCn1c(N2CCC[C@@H](N)C2)nc2c1c(=O)n(Cc1nc(C)c3ccccc3n1)c(=O)n2C` [linagliptin], in data set [1], the “hypoglycemia in combination therapy” value is given as “Hypoglycemia was more commonly”. The Half-life (after 5 mg dose) was >100 h after 5 mg.

As to `CCCCCCCCCCCCCCCC(=O)N[C@@H](CCC(=O)NCCCC[C@H](NC(=O)[C@H](C)NC(=O)[C@H](C)NC(=O)[C@H](CCC(N)=O)NC(=O)CNC(=O)[C@H](CCC(=O)O)NC(=O)[C@H](CC(C)C)NC(=O)[C@H](Cc1ccc(O)cc1)NC(=O)[C@H](CO)NC(=O)[C@H](CO)NC(=O)[C@@H](NC(=O)[C@H](CC(=O)O)NC(=O)[C@H](CO)NC(=O)[C@@H](NC(=O)[C@H](Cc1ccccc1)NC(=O)[C@@H](NC(=O)CNC(=O)[C@H](CCC(=O)O)NC(=O)[C@H](C)NC(=O)[C@@H](N)Cc1cnc[nH]1)[C@@H](C)O)[C@@H](C)O)C(C)C)C(=O)N[C@@H](CCC(=O)O)C(=O)N[C@@H](Cc1ccccc1)C(=O)N[C@H](C(=O)N[C@@H](C)C(=O)N[C@@H](Cc1c[nH]c2ccccc12)C(=O)N[C@@H](CC(C)C)C(=O)N[C@H](C(=O)N[C@@H](CCCNC(=N)N)C(=O)NCC(=O)N[C@@H](CCCNC(=N)N)C(=O)NCC(=O)O)C(C)C)[C@@H](C)CC)C(=O)O` [liraglutide], the “Immunogenicity-related events, including urticaria” value in data set [1] (treated patients in clinical trials (comparator-treated 0.4%)) was “Victoza-treated patients (0.8%) than among”.

For the compound `N#C[C@@H]1C[C@@H]2C[C@@H]2N1C(=O)[C@@H](N)C12CC3CC(CC(O)(C3)C1)C2` [saxagliptin], the saxagliptin concentrations entry in data set [2] is given as “increases”. The Peripheral edema entry in data set [1] (combination with a thiazolidinedione (TZD) vs placebo and TZD) is “Peripheral edema was reported more”. For the setting “after oral 5 mg”, the Half-life is 2.5 h after.

For the compound `N[C@@H](CC(=O)N1CCn2c(nnc2C(F)(F)F)C1)Cc1cc(F)c(F)cc1F` [sitagliptin], the “hypoglycemia in combination therapy” value in data set [1] is on record as “There is an increased risk of”. In addition, the Half-life (after oral) is 12.4 h after. The “increase in area under the curve (AUC) of digoxin” value in data set [3] is “curve (AUC, 11%)”. The “fertility / fetal harm, animal studies or animal data” value in data set [4] is given as “JANUVIA did not impair”.

Regarding `N#C[C@@H]1CCCN1C(=O)CNC12CC3CC(CC(O)(C3)C1)C2` [vildagliptin], the “excretion in milk, animal studies” value in data set [4] is “excretion of vildagliptin”.

As for Dulaglutide, in data set [1] (human, in vivo), the “adverse events / tolerability” value is recorded as “Gastrointestinal adverse events reported”.

Consider taspoglutide, for which, in data set [1] (human, in vivo), the “patients showing antibodies against the drug” value was “(compared to exenatide); 49% of patients”.
